From patent publication US12070464B2, “Methods of treating myeloproliferative disorders” (priority 2019, dated 2024)

What was measured:
[1] = test system: patients with refractory or intolerant myelofibrosis no longer on Rux; experiment: Phase 2 study, Arm 1 (Compound 1 monotherapy); assay type: in vivo, human; details: for average spleen volume reduction: 24 weeks, FIG. 13A
Experimental: A Phase 2 study of Compound 1 in subjects with myelofibrosis (MF) was conducted. Three treatment arms were studied: Arm 1=monotherapy with Compound 1 in patients (pts) who are no longer on Rux and are with refractory, intolerant, or ineligible. In this arm patients were further stratified based on transfusion dependence status [transfusion dependent (TD), defined as an average of >2 units per month over 12 wks, or non-TD cohorts]. Primary endpoint: spleen volume response (SVR) for non-TD cohorts or TD to transfusion independence (TI, no transfusion for consecutive 12 wks) conversion for TD cohorts; secondary endpoints: change in total symptom score (TSS) per […]4.0, patient global impression of change (PGIC), safety and PK; additional endpoints: changes in proinflammatory Ck levels, BM morphology and mutant allele burden. The starting dose of Compound 1 was 125 mg given orally, once daily for 2 weeks on/1 week off in a 21-day dosing cycle. Two separate time points for data analysis occurred for at least Arms 1 and 2 and are discussed below: one at approximately 12 weeks of treatment (first assessment of spleen volume by MRI or CT and every 12 weeks thereafter) and another at approximately 24 weeks of treatment (first assessment of bone marrow biopsy and every 24 weeks thereafter). Patients were added to the study following the first time point. Patients were added to the study following the first data cut and treatment was continued for approximately 25.9 weeks (median, range: 0.4, 116.6).

[2] = test system: JAK inhibitor treatment naive myelofibrosis patients; assay type: in vivo, human
Experimental: A Phase 2 study of Compound 1 in subjects with myelofibrosis (MF) was conducted. Three treatment arms were studied:
Arm 3—combination treatment with Compound 1 and Rux in patients (pts) who have not previously been administered a JAK inhibitor, i.e., JAK inhibitor treatment naive. In this arm, key eligibility criteria of included JAKi naive myelofibrosis (MF) patients (pts) with Dynamic International Prognostic Scoring (DIPSS) score int-1 or higher, ECOG performance status ≤2, platelet counts (PLT) ≥100×109/L, peripheral blood blast count <10%, anemia (hemoglobin <10 g/dL), ≥5 cm palpable spleen, ≥2 symptoms measurable (score ≥3) or a total symptom score (c using the MFSAF v4.0. Primary endpoint: spleen volume response (SVR); key secondary endpoints: change in TSS, safety and PK; additional endpoints: changes in proinflammatory cytokine (Ck) levels, BM morphology and mutant allele burden.
The starting dose of Compound 1 was 125 mg given orally, once daily for 2 weeks on/1 week off in a 21-day dosing cycle. Two separate time points for data analysis occurred for at least Arms 1 and 2 and are discussed below: one at approximately 12 weeks of treatment (first assessment of spleen volume by MRI or CT and every 12 weeks thereafter) and another at approximately 24 weeks of treatment (first assessment of bone marrow biopsy and every 24 weeks thereafter). Patients were added to the study following the first time point.
Demographics and results are as follows: Baseline median age: 71 years (52-76), gender: 8 male (72.7%), ECOG ≤1: 10 (90.9%) patients, primary MF: 8 (72.7%) patients, DIPSS score: int-1/int-2/high: 2/7/2 patients, median platelet: 368×109/L (112-951), 9 (81.8%) patients with hemoglobin <10 g/dL, median spleen volume: 1379 cc (580-2807), median TSS: 11.8 (4.1-17), driver mutations: 11 (100%) with ≥1 JAK2/MPL/CALR mutations, HMR (high molecular risk) mutations: 6 […] patients, and ≥3 mutations: 4 (36%) patients. […] See FIG. 9, where * is data post cut off-date.

[3] = expanded population n=15, at least 12 weeks, FIG. 16

SMILES: Cc1noc2c1-c1ccccc1C(c1ccc(Cl)cc1)=N[C@H]2CC(N)=O [Compound 1, 2-((4S)-6-(4-chlorophenyl)-1-methyl-4H-benzo[c]isoxazolo[4,5-e]azepin-4-yl)acetamide]
- patients with increase in hemoglobin by 1.5 mg/dL post-baseline ([1]; Time Point 1, monotherapy, 4 of 8): 50%
- average spleen volume reduction ([1]; Time Point 2, TD patients (Cohort 1A)): about −3.2%
- average spleen volume reduction ([1]; Time Point 2, non-TD patients (Cohort 1B)): about −26%
- patients with improved PGIC ([1]; Time Point 2, TD patients): about 50%
- patients with improvement in bone marrow fibrosis ([1]; Time Point 2, TD patients): about 25%
- patients with improved PGIC ([1]; Time Point 2, non-TD patients): 100%
- patients with improvement in disease symptoms per TSS ([1]; Time Point 2, non-TD patients): About 60%
- patients achieving ≥50% improvement in TSS ([2]; 4 patients on treatment for ≥12 weeks, with ruxolitinib): 100%
- patients achieving ≥35% spleen volume reduction ([2]; 4 patients on treatment for ≥12 weeks, with ruxolitinib, FIG. 9): 100%
- patients who had a TSS of ≥10 ([2]; expanded population n=15, FIG. 17): about 71%
- patients with overall improvement in PGIC ([2]; expanded population n=15, FIG. 18): About 80%
- SVR, average [2, 3]: about −49.7%
- patients achieving ≥35% SVR [2, 3]: About 80%
- DLTs and grade ≥3 thrombocytopenia ([2]; human, in vivo): no DLTs or grade ≥3 thrombocytopenia
- most common TEAE observed in ≥2 patients ([2]; human, in vivo): anemia (1 grade 3), fatigue (all ≤grade 2), and non-cumulative reversible thrombocytopenia (all ≤grade 2)
